≈ marks a conversion by molar mass, not a printed value. Like-named read-outs stand apart in the source and are kept apart here.
Legend:
HIV-1 [1] = assay: HIV inhibition assay of acutely infected CEM cells (MTT tetrazolium colorimetric, reduction of CPE); format: cell-based; details: for IC50 / inhibition at 1 µg/mL / inhibition at 10 µg/mL: Human immunodeficiency virus 1, CCRF-CEM, 168 h; for IC50: read-out: ID50 (inhibitory dose that inhibits 50% of the cytopathic effect); for inhibition at 1 µg/mL / inhibition at 10 µg/mL: read-out: Percent Reduction of CPE
Method: B. Representative compounds prepared in the foregoing illustrative specific examples were also tested in vitro for the assessment of anti-viral (HIV) activity as follows:
The HIV inhibition assay method of acutely infected cells is an automated tetrazolium based colorimetric assay adatped from that reported by Pauwles et al., J. Virol. Methods, 20, 309-321 (1988). Assays were performed in 96-well tissue culture plates. CEM cells were grown in RPMI-1640 medium (Gibco) supplemented with 10% fetal calf serum and were then treated with polybrene (2 μg/ml). An 80 μl volume of medium containing 1×10^4 cells was dispensed into each well of the tissue culture plate. To each well was added a 100 μl volume of test compound dissolved in tissue culture medium (or medium without test compound as a control) to achieve the desired final concentration and the cells were incubated at 37° C. for 1 hour. A frozen culture of HIV-1 was diluted in culture medium to a concentration of 5×10^4 TCID50 per ml (TCID50 =the dose of virus that infects 50% of cells in tissue culture), and a 20 μl volume of the virus sample (containing 1000 TCID50 of virus) was added to wells containing test compound and to wells containing only medium (infected control cells). […] Several wells received culture medium without virus (uninfected control cells). Likewise, the intrinsic toxicity of the test compound was determined by adding medium without virus to several wells containing test compound. In summary, the tissue culture plates contained the following tests (in triplicate):
In tests 2 and 4 the final concentrations of test compounds were 1, 10, 100 and 500 μg/ml. Azidothymidine (AZT) was tested as a positive drug control, and dodecanoic acid was tested as a negative fatty acid control. […] Under these conditions, DMSO had no significant effect on results as determined in controls.
Following the addition of virus, cells were incubated at 37° C. in a humidified, 5% CO2 atmosphere for 7 days. Additional aliquots of test compounds were added on days 2 and 5. On day 7 post-infection, the cells in each well were resuspended and a 100 μl sample of each cell suspension was removed for assay. A 20 μl volume of a 5 mg/ml solution of 3-(4,5-dimethylthiazol-2-yl)-2,5-diphenyltetrazolium bromide (MTT) was added to each 100 μl cell suspension, and the cells were incubated for 4 hours at 37° C. in a 5% CO2 environment. […] To each sample was added 100 μl of 10% sodium dodecylsulfate in 0.01 N HCl to lyse the cells and samples were incubated overnight. The absorbance of each sample was determined.at 590 nm using a Molecular Devices microplate reader. The % reduction of the virus induced cytopathic effect (CPE) by the test compounds was determined using the formula shown at the bottom of Table 2, hereinafter.
The results of the antiviral testing are set forth in Table 2, as percent reduction in cytopathic effect (CPE). The inhibitory dose that inhibits 50% of the cytopathic effect is shown as ID50 (μg/ml).
^a The percent reduction of viral CPE was calculated by the formula: […]

[2] = target: T1, yeast N-myristoyltransferase (Saccharomyces cerevisiae, UniProt P14743); assay: in vitro yeast N-myristoyltransferase (NMT) assay, substrate activity of fatty acyl CoA derivatives; format: biochemical; details: peptide GSAASARR-NH2, 30° C., 10 minutes; normalized to myristoyl peptide of parallel assay
T1 sequence (P14743 1-455): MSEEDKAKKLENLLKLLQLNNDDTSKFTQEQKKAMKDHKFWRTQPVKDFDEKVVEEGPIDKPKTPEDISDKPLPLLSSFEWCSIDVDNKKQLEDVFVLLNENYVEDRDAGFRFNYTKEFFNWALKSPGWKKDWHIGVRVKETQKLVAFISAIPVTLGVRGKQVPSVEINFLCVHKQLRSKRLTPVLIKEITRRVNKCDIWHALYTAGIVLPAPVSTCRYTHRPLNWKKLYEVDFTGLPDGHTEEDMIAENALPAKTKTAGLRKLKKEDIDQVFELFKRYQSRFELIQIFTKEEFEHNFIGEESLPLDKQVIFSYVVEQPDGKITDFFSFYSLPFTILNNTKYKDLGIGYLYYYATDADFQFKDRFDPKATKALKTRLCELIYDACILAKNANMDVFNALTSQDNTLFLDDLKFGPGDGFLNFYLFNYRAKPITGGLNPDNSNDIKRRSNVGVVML
Method: A. Representative compounds prepared in the foregoing illustrative specific examples were analyzed in a conventional in vitro yeast N-myristoyltransferase (NMT) assay as published by Heuckeroth et al., Proc. Nat'l Acad. Sci. USA 85, 8795-8799 (1988). In this assay, the test compounds were first converted to their respective fatty acyl CoA derivatives and then tested as substrates for the yeast NMT.
The assay conditions [essentially the same as those reported by Towler and Glaser, Proc. Natl. Acad. Sci. USA 83, 2812-2816 (1986)] were as follows:
1. Ligase reaction: 3.3 μmoles fatty acid, 5 mM ATP and 1 mM CoA were incubated with 15-150 milliunits of CoA ligase (1 unit/ml in 50 mM HEPES, pH 7.3) in a buffer composed of 10 mM TRIS-HCl, pH 7.4, 1 mM dithiothreitol, 5 mM MgCl2 and 0.1 mM EGTA, in a total volume of 50 μl for 25 minutes at 30° C.
2. NMT assay: 50 μl of the CoA ligase mixture was added to a 50 μl solution of 90 μM peptide (GSAASARR-NH2) in a buffer composed of 10 mM TRIS-HCl, pH 7.4, 1 mM dithiothreitol, 0.01 mM EGTA and aprotinin (10 μg/ml). 0.4 Unit of yeast N-myristoyltransferase was then added and the reaction mixture was incubated at 30° C. for 10 minutes. The peptide was radiolabeled with tritiated alanine in position 3. The reaction was quenched with 120 μl of TCA-MeOH and 75 μl was injected on a reverse phase C18 HPLC column and eluted with a linear gradient of 0-100% acetonitrile over 100 minutes (both water and acetonitrile containing 0.1% trifluoroacetic acid). Radioactivity was assessed with an on line radiomatic detector corrected for quenching.
The amount of radioactivity was determined for each azido-substituted fatty acyl peptide product and then was normalized to the amount of myristoyl peptide produced in an assay run in parallel.

HIV-1 [3] = assay: HIV inhibition assay of acutely infected CEM cells (MTT tetrazolium colorimetric, reduction of CPE); format: cell-based; details: Human immunodeficiency virus 1, CCRF-CEM, 168 h, read-out: Percent Reduction of CPE
[4] = concentration 1 (μg/ml), CEM cells, HIV-1, 7 days
[5] = concentration 10 (μg/ml), CEM cells, HIV-1, 7 days

| Compound | IC50 (HIV-1 [1]; CEM cells, HIV-1, 7 days) [µg/mL] | inhibition at 1 µg/mL (HIV-1 [1]; [4]) [%] | inhibition at 10 µg/mL (HIV-1 [1]; [5]) [%] | Activity (% of Myristate) [2] | ID50 (inhibitory dose that inhibits 50% of the cytopathic effect) (HIV-1 [1]; CEM cells, HIV-1, 7 days) | also measured |
| --- | --- | --- | --- | --- | --- | --- |
| [N-]=[N+]=NCCCCCCCCCCCC(=O)O [Compound 1, 12-Azidododecanoic acid] | 0.3 (≈ 1.24 µM) | 81.7 | 38.2 | 142 % of Myristate |  |  |
| [N-]=[N+]=NCCCCCCCCC(=O)O [Compound 3, 9-Azidononanoic acid] |  |  |  | 55 % of Myristate |  |  |
| O=C(O)CCCCCCCCCCCn1cncn1 [Compound 48] | 4.2 (≈ 15.7 µM) | 24 | 66 | 23 % of Myristate |  |  |
| [N-]=[N+]=NCCCCCCCCCCC(=O)O [Compound 2, 11-Azidoundecanoic acid] |  | 16.3 | 34.6 | 100 % of Myristate |  |  |
| [N-]=[N+]=NCCCCCCCCSCCC(=O)O [Compound 23, 4-(1-Azido-octane-6-thia)propionic acid] |  |  |  | 373 % of Myristate | Inactive | inhibition at 1 µg/mL (HIV-1 [1]): 0%; inhibition at 10 µg/mL (HIV-1 [1]): 0% |
| Cc1cn([C@H]2C[C@H](N=[N+]=[N-])[C@@H](CO)O2)c(=O)[nH]c1=O [AZT, Azidothymidine] | < 0.001 |  |  |  |  | inhibition at 0.5 µg/mL (HIV-1 [3]): 87.8%; inhibition at 0.001 µg/mL (HIV-1 [3]; 0.001 μg/ml, CEM cells, HIV-1, 7 days): 58.2%; inhibition at 0.01 µg/mL (HIV-1 [3]; 0.01 μg/ml, CEM cells, HIV-1, 7 days): 84.8%; inhibition at 0.1 µg/mL (HIV-1 [3]; 0.1 μg/ml, CEM cells, HIV-1, 7 days): 101% |
| CCCCCCCCCC(=O)O [Decanoic acid, reference compound] |  |  |  |  |  | inhibition at 1 µg/mL (HIV-1 [1]): 7.7%; inhibition at 10 µg/mL (HIV-1 [1]): 11.3% |
| [N-]=[N+]=NCCOCCCCCCCCC(=O)O [Compound 40, 9-(1-Azido-ethane-2-oxa)nonanoic acid] |  |  |  | 280 % of Myristate |  |  |
| 12-(Tetrazolyl)dodecanoic acid [Compound 46] |  |  |  | 46 % of Myristate | 5.9 µg/mL | Percent Reduction of CPE (HIV-1 [1]; [4]): 12%; Percent Reduction of CPE (HIV-1 [1]; [5]): 65% |
| [N-]=[N+]=NCCCOCCCCCCCC(=O)O [Compound 41, 8-(1-Azido-propane-3-oxa)octanoic acid] | 5 (≈ 20.6 µM) | 14 | 66 | 421 % of Myristate |  |  |
| COCCCCCCCCCCCC(=O)O [13-Oxamyristate, reference compound] | 0.3 (≈ 1.3 µM) | 66.4 | 43.5 |  |  |  |
| [N-]=[N+]=NCCCCCCCCCSCC(=O)O [Compound 19, 2-(1-Azido-nonane-9-thia)acetic acid] | 9.2 (≈ 35.5 µM) | 1 | 54 | 17 % of Myristate |  |  |
| [N-]=[N+]=NCCCCCCCCCOCC(=O)O [Compound 43, 2-(1-Azido-nonane-9-oxa)acetic acid] |  |  |  | 11 % of Myristate | Inactive |  |
| [N-]=[N+]=NCCCCCCOCCCCC(=O)O [Compound 42, 5-(1-Azido-hexane-6-oxa)pentanoic acid] |  | 4 | 20 | 622 % of Myristate | Inactive |  |
| [N-]=[N+]=NCCCCCCSCCCCC(=O)O [Compound 13, 5-(1-Azido-hexane-6-thia)pentanoic acid] |  | 0 | 14 | 103 % of Myristate | Inactive |  |
| O=C(O)CCCCCCCCCCCn1nccn1 [Compound 50, 12-(N-2-[1,2,3]-Triazolyl)dodecanoic acid] |  | 19.5 | 30.8 | 99 % of Myristate |  |  |
